SMILES strings stand for the structures.

Common to all, as to assay: drug sensitivity score (DSS2, normalised partial AUC of dose-response, 72 h CellTiter-Glo viability) (DSS (dimensionless)); higher = more sensitive (stronger growth inhibition / cytotoxicity); extreme values may be limits of the assay
Assay [1] has as its system CAF#7 (primary prostate cancer-associated fibroblasts of myCAF-like type). The method, boiled down: (§1)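 Cells were added to 384-well plates already holding compounds at five doses over a 10,000-fold range: low-passage primary prostate cancer-associated fibroblasts, PF179T, WPMY-1, LNCaP and 22Rv1. Viability was measured 72 h later by CellTiter-Glo 2.0 luminescence and scaled to vehicle and positive-control wells. The drug sensitivity score, computed in BREEZE, is a partial area under the fitted logistic dose–response curve divided by the log of its upper asymptote, with higher scores meaning greater sensitivity.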

Assay [2] concerns CAF#5 (primary prostate cancer-associated fibroblasts of myCAF-like type). The method, boiled down:
as §1

Assay [3] deals with 22Rv1. The method, boiled down:
as §1

Assay [4] has as its system WPMY-1. The method, boiled down: as §1
Assay [5] concerns PF179T. The method, boiled down:
as §1

In assay [6] the test system is CAF#6 (primary prostate cancer-associated fibroblasts of iCAF-like type). The method, boiled down:
as §1

Assay [7] concerns LNCAP. The method, boiled down: as §1
Assay [8] deals with CAF#2 (primary prostate cancer-associated fibroblasts of iCAF-like type). The method, boiled down: as §1
For assay [9], the system named is CAF#4 (primary prostate cancer-associated fibroblasts of iCAF-like type). The method, boiled down:
as §1

In assay [10] the test system is CAF#1 (primary prostate cancer-associated fibroblasts of myCAF-like type). The method, boiled down:
as §1

In assay [11] the test system is CAF#3 (primary prostate cancer-associated fibroblasts of myCAF-like type). The method, boiled down:
as §1

Regarding `CC(C)N(C[C@H]1O[C@@H](n2cnc3c(N)ncnc32)[C@H](O)[C@@H]1O)[C@H]1C[C@@H](CCc2nc3cc(C(C)(C)C)ccc3[nH]2)C1` [Pinometostat] (tested concentration range 0.1-1000 nM), the drug sensitivity score in assay [1], in [2], in [3], in assay [4], in [5] and in assay [6] was 0 each time. The drug sensitivity score turned out to be 0 in assay [7]; 0 in assay [8]; 0 in [9]; 0 in assay [10]; 1.5 in assay [11].
With `Cc1ccc(=O)n(-c2ccccc2)c1` [Pirfenidone] (tested concentration range 1-10000 nM), the drug sensitivity score in [1], in assay [2], in [3], in assay [4], in assay [5] and in [6] was 0 in each case. In addition, the drug sensitivity score in assay [7], in [8], in [9], in [10] and in assay [11] was 0 in each case.
With `Nc1cccc2c1C(=O)N(C1CCC(=O)NC1=O)C2=O` (stereo not drawn) [Pomalidomide] (tested concentration range 1-10000 nM), the drug sensitivity score in assay [1], in assay [2], in assay [3], in assay [4], in [5] and in assay [6] was 0 each time. Besides, the drug sensitivity score in [7], in [8], in [9], in [10] and in assay [11] was 0 in each case.
As to `C=CC(=O)N1CCC(Oc2cc3c(Nc4ccc(Cl)c(Cl)c4F)ncnc3cc2OC)CC1` [Poziotinib] (tested concentration range 0.1-1000 nM), the drug sensitivity score in assay [1] is 0; in assay [2] it was 0; in assay [3], 0.5; in assay [4] it was 1; in [5], 0; in assay [6], 0. Moreover, the drug sensitivity score is 3.9 in [7]; 0 in [8]; 0 in [9]; 0 in assay [10]; 0.3 in assay [11].
As for `CCCCc1nc2cc(/C=C/C(=O)NO)ccc2n1CCN(CC)CC` [Pracinostat] (tested concentration range 1-10000 nM), the drug sensitivity score in assay [1] was determined as 8.4; in assay [2], 10.3; in assay [3] it was 20; in [4], 20; in [5] it was 9.9; in assay [6], 9.2. In addition, the drug sensitivity score worked out at 20.3 in assay [7]; 13.7 in assay [8]; 10.6 in assay [9]; 10.7 in assay [10]; 9 in assay [11].
As for `CC[C@H](C)C(=O)O[C@H]1C[C@H](O)C=C2C=C[C@H](C)[C@H](CC[C@@H](O)C[C@@H](O)CC(=O)O)[C@H]21` [Pravastatin] (tested concentration range 1-10000 nM), the drug sensitivity score in assay [1], in assay [2], in assay [3], in assay [4], in assay [5] and in [6] was 0 throughout. Besides, the drug sensitivity score worked out at 0 in [7]; 0.3 in [8]; 0 in assay [9]; 0 in assay [10]; 0 in assay [11].
As for `C[C@]12C=CC(=O)C=C1CC[C@@H]1[C@@H]2[C@@H](O)C[C@@]2(C)[C@H]1CC[C@]2(O)C(=O)CO` [Prednisolone] (tested concentration range 1-10000 nM), the drug sensitivity score in [1], in assay [2], in [3], in [4], in assay [5] and in [6] was 0 each time. Also, the drug sensitivity score in assay [7], in [8], in assay [9], in [10] and in assay [11] was 0 throughout.
As to `COc1cccc(OCCCN)c1-c1cc(Nc2cnc(C#N)cn2)n[nH]1` [Prexasertib] (tested concentration range 1-10000 nM), the drug sensitivity score in assay [1] came out at 5.4; in [2], 9.1; in assay [3] it was 24.4; in assay [4], 29.7; in [5] it was 14.5; in assay [6], 6.8. For the same compound, the drug sensitivity score turned out to be 24.3 in assay [7]; 16.6 in assay [8]; 8.7 in assay [9]; 8.6 in assay [10]; 4.9 in assay [11].
On to `CC(C)(C)c1cc(NC(=O)Nc2ccc(-c3cn4c(n3)sc3cc(OCCN5CCOCC5)ccc34)cc2)no1` [Quizartinib] (tested concentration range 0.1-1000 nM), for which the drug sensitivity score amounted to 0 in assay [1]; 1.5 in assay [2]; 0 in assay [3]; 1.4 in assay [4]; 0 in assay [5]; 0 in [6]. The drug sensitivity score turned out to be 0 in [7]; 2.3 in [8]; 0 in [9]; 0.3 in assay [10]; 0 in assay [11].
For the compound `Nc1cc(F)ccc1NC(=O)/C=C/c1cnn(C/C=C/c2ccccc2)c1` [RGFP966] (tested concentration range 1-10000 nM), the drug sensitivity score in [1] came out at 2.7; in assay [2], 3.1; in assay [3] it was 1.8; in [4], 2.2; in assay [5], 3.8; in assay [6], 2.1. For the same compound, the drug sensitivity score turned out to be 8.3 in assay [7]; 3.2 in assay [8]; 3.3 in assay [9]; 3.1 in [10]; 2.6 in assay [11].
In the case of `COC(=O)c1ccc([C@H]2c3[nH]c4ccccc4c3C[C@H](C(=O)OC)N2C(=O)CCl)cc1` [RSL3] (tested concentration range 1-10000 nM), the drug sensitivity score came to 9.5 in assay [1]; 0.3 in assay [2]; 0 in [3]; 0 in assay [4]; 0 in assay [5]; 0.6 in [6]. For the same compound, the drug sensitivity score was 0.9 in assay [7]; 3 in assay [8]; 0 in assay [9]; 0.7 in assay [10]; 2.5 in [11].
On to `Cc1cn(-c2cc(NC(=O)c3ccc(C)c(Nc4nccc(-c5cnccn5)n4)c3)cc(C(F)(F)F)c2)cn1` [Radotinib] (tested concentration range 1-10000 nM), for which the drug sensitivity score in assay [1], in assay [2], in assay [3], in assay [4], in assay [5] and in [6] was 0 in each case. Further, the drug sensitivity score in [7] worked out at 0.3; in assay [8] it was 0; in assay [9], 0.1; in assay [10], 0.5; in assay [11] it was 0.
In the case of `CC(C)(C)Cn1c(N)nc2ccc(-c3[nH]c(C(C)(C)C)nc3-c3ccc(F)cc3)nc21` [Ralimetinib] (tested concentration range 1-10000 nM), the drug sensitivity score in [1] is 0; in [2] it was 0; in assay [3], 3.8; in assay [4], 2.8; in [5], 0; in assay [6] it was 0.1. For the same compound, the drug sensitivity score came out at 11.2 in [7]; 1.9 in [8]; 0.1 in assay [9]; 0.8 in assay [10]; 2.1 in assay [11].

The record behind these values is the supplement of paper PMC12592484.
